{"source": "paper PMC9062515", "about": "“Identification of the Biosynthetic Pathway of Glycine Betaine That Is Responsible for Salinity Tolerance in Halophilic Thioalkalivibrio versutus D301” (Frontiers in Microbiology, 2022)", "key": {"[1]": {"biological_target": "T1, TvSDMT (Thioalkalivibrio versutus, UniProt A0A0G3G397)", "T1 construct": "gene TVD_00880; His-tagged, pET-28a(+), E. coli BL21(DE3), Ni Sepharose; calculated 32 kDa", "T1 sequence (A0A0G3G397 1-282)": "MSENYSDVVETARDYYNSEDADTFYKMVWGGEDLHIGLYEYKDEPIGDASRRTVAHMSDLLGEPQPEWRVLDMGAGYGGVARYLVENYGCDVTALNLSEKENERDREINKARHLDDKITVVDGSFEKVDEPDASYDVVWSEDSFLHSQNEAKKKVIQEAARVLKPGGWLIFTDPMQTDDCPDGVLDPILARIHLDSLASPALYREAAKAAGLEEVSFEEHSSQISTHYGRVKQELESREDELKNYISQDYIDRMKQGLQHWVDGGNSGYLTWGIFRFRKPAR", "assay": "methyltransferase assay, HPLC of product", "assay_type": "biochemical", "conditions": "10 mM SAM, MgCl2, pH 7.5, 37 °C"}, "[2]": {"biological_target": "T2, TvGMT (Thioalkalivibrio versutus, UniProt A0A0G3G560)", "T2 construct": "gene TVD_00875; His-tagged, pET-28a(+), E. coli BL21(DE3), Ni Sepharose; calculated 32 kDa", "T2 sequence (A0A0G3G560 1-272)": "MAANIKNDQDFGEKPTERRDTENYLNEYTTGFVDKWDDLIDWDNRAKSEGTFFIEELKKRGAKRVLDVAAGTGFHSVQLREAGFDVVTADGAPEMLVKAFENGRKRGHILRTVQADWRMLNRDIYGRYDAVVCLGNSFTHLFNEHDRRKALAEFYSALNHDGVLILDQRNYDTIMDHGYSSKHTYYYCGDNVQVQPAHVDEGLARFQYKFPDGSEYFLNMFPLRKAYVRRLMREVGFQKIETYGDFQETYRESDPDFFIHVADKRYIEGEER", "assay": "methyltransferase assay, HPLC of product", "assay_type": "biochemical", "conditions": "250 mM glycine, 10 mM SAM, MgCl2, pH 7.5, 37 °C"}}}
{"smiles": "CN(C)CC(=O)O", "note": "[dimethylglycine]", "values": [{"measurement": "methyltransferase assay, HPLC of product", "setting": "[1]; 50 mM dimethylglycine", "value": "exhibited activities on both sarcosine and dimethylglycine, showing a higher specific activity toward dimethylglycine"}]}
{"smiles": "NCC(=O)O", "note": "[glycine]", "values": [{"measurement": "methyltransferase assay, HPLC of product", "setting": "[2]", "value": "The purified TVD_RS00875 converted glycine to sarcosine with a relatively high specific activity"}]}
{"smiles": "CNCC(=O)O", "note": "[sarcosine]", "values": [{"measurement": "methyltransferase assay, HPLC of product", "setting": "[1]; 60 mM sarcosine", "value": "TvSDMT, exhibited activities on both sarcosine and dimethylglycine"}]}
